Literature values, collected in US20230392217A1 (priority 2020, published 2023).
Where two headings read alike, the source gives them in different places.

Assays:
[1] = system: methicillin-resistant S. aureus (MRSA); conditions: cited from earlier work
[2] = system: methicillin-sensitive S. aureus (MSSA); conditions: cited from earlier work

COc1cccc(OC)c1C(=O)N[C@@H]1C(=O)N2[C@@H]1SC(C)(C)[C@@H]2C(=O)O [Methicillin, methicillin]
antibiotic susceptibility/resistance ([1]; strain MRSA #1): Resistant
antibiotic susceptibility/resistance ([1]; strain MRSA #2): Resistant
antibiotic susceptibility/resistance ([1]; strain MRSA #3): Resistant
antibiotic susceptibility/resistance ([1]; strain MRSA #4): Resistant
antibiotic susceptibility/resistance ([1]; strain MRSA #5): Resistant
antibiotic susceptibility/resistance ([1]; strain MRSA #6): Resistant
antibiotic susceptibility/resistance ([1]; strain MRSA #7): Resistant
antibiotic susceptibility/resistance ([1]; strain MRSA #8): Resistant
antibiotic susceptibility/resistance ([1]; strain MRSA #9): Resistant
antibiotic susceptibility/resistance ([1]; strain MRSA #10): Resistant
antibiotic susceptibility/resistance ([1]; strain MRSA #11): Resistant
antibiotic susceptibility/resistance ([1]; strain MRSA #12): Resistant
antibiotic susceptibility/resistance ([1]; strain MRSA #13): Resistant
antibiotic susceptibility/resistance ([1]; strain MRSA #14): Resistant
antibiotic susceptibility/resistance ([1]; strain MRSA #15): Resistant
antibiotic susceptibility/resistance ([1]; strain MRSA #16): Resistant
antibiotic susceptibility/resistance ([1]; strain MRSA #17): Resistant
antibiotic susceptibility/resistance ([1]; strain MRSA #18): Resistant
antibiotic susceptibility/resistance ([1]; strain MRSA #19): Resistant
antibiotic susceptibility/resistance ([1]; strain MRSA #20): Resistant
antibiotic susceptibility/resistance ([1]; strain MRSA #21): Resistant
antibiotic susceptibility/resistance ([1]; strain MRSA #22): Resistant
antibiotic susceptibility/resistance ([1]; strain MRSA #23): Resistant
antibiotic susceptibility/resistance ([1]; strain MRSA #24): Susceptible
antibiotic susceptibility/resistance ([1]; strain MRSA #25): Resistant
antibiotic susceptibility/resistance ([1]; strain MRSA #26): Resistant
antibiotic susceptibility/resistance ([1]; strain MRSA #27): Resistant
antibiotic susceptibility/resistance ([1]; strain MRSA #28): Resistant
antibiotic susceptibility/resistance ([1]; strain MRSA #29): Resistant
antibiotic susceptibility/resistance ([1]; strain MRSA #30): Resistant
antibiotic susceptibility/resistance ([2]; strain MSSA #1): Susceptible
antibiotic susceptibility/resistance ([2]; strain MSSA #2): Susceptible
antibiotic susceptibility/resistance ([2]; strain MSSA #3): Susceptible
antibiotic susceptibility/resistance ([2]; strain MSSA #4): Susceptible
antibiotic susceptibility/resistance ([2]; strain MSSA #5): Susceptible
antibiotic susceptibility/resistance ([2]; strain MSSA #6): Susceptible
antibiotic susceptibility/resistance ([2]; strain MSSA #7): Susceptible
antibiotic susceptibility/resistance ([2]; strain MSSA #8): Susceptible
antibiotic susceptibility/resistance ([2]; strain MSSA #9): Susceptible
antibiotic susceptibility/resistance ([2]; strain MSSA #10): Susceptible
antibiotic susceptibility/resistance ([2]; strain MSSA #11): Susceptible
antibiotic susceptibility/resistance ([2]; strain MSSA #12): Susceptible
antibiotic susceptibility/resistance ([2]; strain MSSA #13): Susceptible
antibiotic susceptibility/resistance ([2]; strain MSSA #14): Susceptible
antibiotic susceptibility/resistance ([2]; strain MSSA #15): Susceptible
antibiotic susceptibility/resistance ([2]; strain MSSA #16): Susceptible
antibiotic susceptibility/resistance ([2]; strain MSSA #17): Susceptible
antibiotic susceptibility/resistance ([2]; strain MSSA #18): Susceptible
antibiotic susceptibility/resistance ([2]; strain MSSA #19): Susceptible
antibiotic susceptibility/resistance ([2]; strain MSSA #20): Susceptible

CN[C@H](CC(C)C)C(=O)N[C@H]1C(=O)N[C@@H](CC(N)=O)C(=O)N[C@H]2C(=O)N[C@H]3C(=O)N[C@H](C(=O)N[C@H](C(=O)O)c4cc(O)cc(O)c4-c4cc3ccc4O)[C@H](O)c3ccc(c(Cl)c3)Oc3cc2cc(c3O[C@@H]2O[C@H](CO)[C@@H](O)[C@H](O)[C@H]2O[C@H]2C[C@](C)(N)[C@H](O)[C@H](C)O2)Oc2ccc(cc2Cl)[C@H]1O [Vancomycin, vancomycin]
antibiotic susceptibility/resistance ([1]; strain MRSA #1): Susceptible
antibiotic susceptibility/resistance ([1]; strain MRSA #2): Susceptible
antibiotic susceptibility/resistance ([1]; strain MRSA #3): Susceptible
antibiotic susceptibility/resistance ([1]; strain MRSA #4): Susceptible
antibiotic susceptibility/resistance ([1]; strain MRSA #5): Susceptible
antibiotic susceptibility/resistance ([1]; strain MRSA #6): Susceptible
antibiotic susceptibility/resistance ([1]; strain MRSA #7): Susceptible
antibiotic susceptibility/resistance ([1]; strain MRSA #8): Susceptible
antibiotic susceptibility/resistance ([1]; strain MRSA #9): Susceptible
antibiotic susceptibility/resistance ([1]; strain MRSA #10): Susceptible
antibiotic susceptibility/resistance ([1]; strain MRSA #11): Susceptible
antibiotic susceptibility/resistance ([1]; strain MRSA #12): Susceptible
antibiotic susceptibility/resistance ([1]; strain MRSA #13): Susceptible
antibiotic susceptibility/resistance ([1]; strain MRSA #14): Susceptible
antibiotic susceptibility/resistance ([1]; strain MRSA #15): Susceptible
antibiotic susceptibility/resistance ([1]; strain MRSA #16): Susceptible
antibiotic susceptibility/resistance ([1]; strain MRSA #17): Susceptible
antibiotic susceptibility/resistance ([1]; strain MRSA #18): Susceptible
antibiotic susceptibility/resistance ([1]; strain MRSA #19): Susceptible
antibiotic susceptibility/resistance ([1]; strain MRSA #20): Resistant
antibiotic susceptibility/resistance ([1]; strain MRSA #21): Susceptible
antibiotic susceptibility/resistance ([1]; strain MRSA #22): Susceptible
antibiotic susceptibility/resistance ([1]; strain MRSA #23): Susceptible
antibiotic susceptibility/resistance ([1]; strain MRSA #24): Susceptible
antibiotic susceptibility/resistance ([1]; strain MRSA #25): Susceptible
antibiotic susceptibility/resistance ([1]; strain MRSA #26): Susceptible
antibiotic susceptibility/resistance ([1]; strain MRSA #27): Susceptible
antibiotic susceptibility/resistance ([1]; strain MRSA #28): Susceptible
antibiotic susceptibility/resistance ([1]; strain MRSA #29): Susceptible
antibiotic susceptibility/resistance ([1]; strain MRSA #30): Resistant
antibiotic susceptibility/resistance ([2]; strain MSSA #1): Susceptible
antibiotic susceptibility/resistance ([2]; strain MSSA #2): Susceptible
antibiotic susceptibility/resistance ([2]; strain MSSA #3): Susceptible
antibiotic susceptibility/resistance ([2]; strain MSSA #4): Susceptible
antibiotic susceptibility/resistance ([2]; strain MSSA #5): Susceptible
antibiotic susceptibility/resistance ([2]; strain MSSA #6): Susceptible
antibiotic susceptibility/resistance ([2]; strain MSSA #7): Susceptible
antibiotic susceptibility/resistance ([2]; strain MSSA #8): Susceptible
antibiotic susceptibility/resistance ([2]; strain MSSA #9): Susceptible
antibiotic susceptibility/resistance ([2]; strain MSSA #10): Susceptible
antibiotic susceptibility/resistance ([2]; strain MSSA #11): Susceptible
antibiotic susceptibility/resistance ([2]; strain MSSA #12): Susceptible
antibiotic susceptibility/resistance ([2]; strain MSSA #13): Susceptible
antibiotic susceptibility/resistance ([2]; strain MSSA #14): Susceptible
antibiotic susceptibility/resistance ([2]; strain MSSA #15): Susceptible
antibiotic susceptibility/resistance ([2]; strain MSSA #16): Susceptible
antibiotic susceptibility/resistance ([2]; strain MSSA #17): Susceptible
antibiotic susceptibility/resistance ([2]; strain MSSA #18): Susceptible
antibiotic susceptibility/resistance ([2]; strain MSSA #19): Susceptible
antibiotic susceptibility/resistance ([2]; strain MSSA #20): Susceptible
